# Measured values reported in patent US20040147739A1, “Novel anti-infectives” (priority 2003, published 2004).
# Target: T1, HCV NS5B (Hepatitis C virus genotype 1b, UniProt P26663)
# T1 construct: The NS5B protein (591 amino acids, 65 kDa) of HCV
# Test: biochemical
# Conditions: not given
# Procedure: The activity of the inventive compounds as inhibitors of HCV activity may be measured by any of the suitable methods known to those skilled in the art, including in vivo and in vitro assays. For example, the HCV NS5B inhibitory activity of the compounds of Formulas I, II and III was determined using standard assay procedures described in Behrens et al., EMBO J. 15:12-22 (1996), Lohmann et al., Virology 249:108-118 (1998) and Ranjith-Kumar et al., J. Virology 75:8615-8623 (2001).
# The HCV NS5B inhibitory activity of the compounds of Formulas I, II m and IV was determined using standard procedures well known to those skilled in the art and described in, for example Behrens et al., EMBO J. 15:12-22 (1996), Lohmann et al., Virology 249:108-118 (1998) and Ranjith-Kumar et al., J. Virology 75:8615-8623 (2001).
# T1 sequence (P26663 2420-3010): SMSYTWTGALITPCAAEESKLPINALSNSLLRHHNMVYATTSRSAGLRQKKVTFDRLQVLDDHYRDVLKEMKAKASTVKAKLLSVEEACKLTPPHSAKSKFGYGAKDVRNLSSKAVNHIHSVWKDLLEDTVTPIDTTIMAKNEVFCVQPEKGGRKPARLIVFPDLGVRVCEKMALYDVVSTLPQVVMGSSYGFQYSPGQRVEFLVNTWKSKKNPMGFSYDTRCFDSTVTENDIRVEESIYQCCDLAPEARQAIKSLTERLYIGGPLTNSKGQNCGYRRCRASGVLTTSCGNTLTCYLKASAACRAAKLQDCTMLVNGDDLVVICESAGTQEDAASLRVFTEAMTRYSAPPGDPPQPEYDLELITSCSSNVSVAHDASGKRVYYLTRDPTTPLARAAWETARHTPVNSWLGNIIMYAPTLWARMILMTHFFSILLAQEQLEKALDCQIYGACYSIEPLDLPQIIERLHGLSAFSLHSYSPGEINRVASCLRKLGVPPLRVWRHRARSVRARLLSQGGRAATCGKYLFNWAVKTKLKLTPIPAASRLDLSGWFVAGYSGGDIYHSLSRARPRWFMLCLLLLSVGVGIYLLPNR
row,Compound,IC50 [µM]
1,O=c1c(C2=NS(=O)(=O)c3ccccc3N2)c(O)c2ccccc2n1CCc1ccccc1 [Example 1],> 10
2,O=c1c(C2=NS(=O)(=O)c3ccccc3N2)c(O)c2ccccc2n1CCCc1ccccc1 [Example 3],> 10
3,"COc1ccc(C(=O)Nc2ccc3c(c2)c(O)c(C2=NS(=O)(=O)c4ccccc4N2)c(=O)n3CCC(C)C)cc1 [Example 37, N-[3-(1,1-Dioxo-1,4-dihydrobenzo[1,2,4]thiadiazin-3-yl)-4-hydroxy-1-(3-methylbutyl)-2-oxo-1,2dihydroquinolin-6-yl]4-methoxybenzamide]",> 10
4,"COc1ccc(CCNC(=O)c2ccc3c(c2)S(=O)(=O)N=C(c2c(O)c4ccccc4n(CCC4CC4)c2=O)N3)cc1 [Example 102, 3-[1-(2-Cyclopropylethyl)-4-hydroxy-2-oxo-1,2-dihydroquinolin-3-yl]-1,1-dioxo-1,4 dihydroenzo[1,2,4]thiadiazine-7-carboxylic acid [2-(4-methoxyphenyl)ethyl]amide]",> 10
5,"CCOC(=O)CCCn1c(=O)c(C2=NS(=O)(=O)c3ccccc3N2)c(O)c2ccccc21 [Example 182, 4-[3-(1,1-Dioxo-1,4-dihydro-1-benzo[1,2,4]thiadiazin-3-yl)-4-hydroxy-2-oxo-2H-quinolin-1-yl]-butyric acid ethyl ester]",> 10
6,"CC(C)CCc1cccc2c(O)c(C3=NS(=O)(=O)c4ccccc4N3)c(=O)[nH]c12 [Example 186, 3-(1,1-Dioxo-1,4-dihydro-1-benzo[1,2,4]thiadiazin-3-yl)-4-hydroxy-8-(3-methylbutyl)-1H-quinolin-2-one]",> 10
7,"O=c1c(C2=NS(=O)(=O)c3ccccc3N2)c(O)c2ccccc2n1CCO [Example 193, 3-(1,1-Dioxo-1,4-dihydro-1-benzo[1,2,4]thiadiazin-3-yl)-4-hydroxy-1-(2-hydroxyethyl)-1H-quinolin-2-one]",> 10
8,"Cc1ccc(F)cc1Cn1c(=O)c(C2=NS(=O)(=O)c3ccccc3N2)c(O)c2ccccc21 [Example 195, 3-(1,1-Dioxo-1,4-dihydro-1-benzo[1,2,4]thiadiazin-3-yl)-1-(5-fluoro-2-methyl-benzyl)4-hydroxy-1H-quinolin-2-one]",> 10
9,"O=c1c(C2=Nc3ccccc3S(=O)(=O)N2)c(O)c2ccccc2n1Cc1ccccc1[N+](=O)[O-] [Example 196, 3-(1,1-Dioxo-1,4-dihydro-1-benzo[1,2,4]thiadiazin-3-yl)-4-hydroxy-1-(2-nitro-benzyl)-1H-quinolin-2-one]",> 10

# Next, values leading:
row,IC50 [µM],Compound
1,> 10,"N#Cc1ccccc1Cn1c(=O)c(C2=Nc3ccccc3S(=O)(=O)N2)c(O)c2ccccc21 [Example 2, 3-(1,1-Dioxo-1,2-dihydrobenzo[1,2,4]thiadiazin-3-yl)-4-hydroxy-1-(2-cyanobenzyl)-1H-quinolin-2-one]"
2,> 10,"CCOC(=O)c1ccc2c(c1)c(O)c(C1=NS(=O)(=O)c3ccccc3N1)c(=O)n2CCC(C)C [Example 95, 3-(1, i-Dioxo-1,4-dihydrobenzo[1,2,4]thiadiazin-3-yl)-4-hydroxy-1-(3-methylbutyl)-2-oxo-1,2-dihydroquinoline-6-carboxylic acid ethyl ester]"
3,> 10,"NC(=O)CCCn1c(=O)c(C2=Nc3ccccc3S(=O)(=O)N2)c(O)c2ccccc21 [Example 170, 4-[3-(1,1-Dioxo-1,2-dihydrobenzo[1,2,4]thiadiazin-3-yl)-4-hydroxy-2-oxoquinolin-1-yl]butyramide]"
4,> 10,"CC(C)CCn1c(=O)c(C2=Nc3ccccc3S(=O)(=O)N2)c(O)c2ccc(C(=O)O)cc21 [Example 171, 3-(1,1-Dioxo-1,2-dihydrobenzo[1,2,4]thiadiazin-3-yl)-4-hydroxy-1-(3-methylbutyl)-2-oxo-1,2-dihydro-quinoline-7-carboxylic acid]"
5,> 10,"CC(C)CCn1c(=O)c(C2=Nc3ccccc3S(=O)(=O)N2)c(O)c2ccc(Br)cc21 [Example 173, 7-bromo-3-(1,1-dioxo-1,2-dihydrobenzo[1,2,4]thiadiazin-3-yl)-4-hydroxy-1-(3-methylbutyl)-1H-quinolin-2-one]"
6,> 10,"CC(C)CCn1c(=O)c(C2=NS(=O)(=O)c3cc(I)ccc3N2)c(O)c2ccccc21 [Example 181, 4-Hydroxy-3-(7-iodo-1,1-dioxo-1,4-dihydro-1-benzo[1,2,4]thiadiazin-3-yl)-1-(3-methylbutyl)-1H-quinolin-2-one]"
7,> 10,"O=C(O)CCCn1c(=O)c(C2=Nc3ccccc3S(=O)(=O)N2)c(O)c2ccccc21 [Example 183, 4-[3-(1,1-Dioxo-1,4-dihydro-1-benzo[1,2,4]thiadiazin-3-yl)-4-hydroxy-2-oxo-2H-quinolin-1-yl]-butyric acid]"
8,> 10,"CC(C)CCn1c(=O)c(C2=NS(=O)(=O)c3ccccc3N2)c(O)c2cc(I)ccc21 [Example 185, 3-(1,1-Dioxo-1,4-dihydro-1-benzo[1,2,4]thiadiazin-3-yl)-4-hydroxy-6-iodo-1-(3-methylbutyl)-1H-quinolin-2-one]"
9,> 10,"CC(C)CCn1c(=O)c(C2=NS(=O)(=O)c3ccccc3N2)c(O)c2c(C(=O)O)cccc21 [Example 188, 3-(1,1-Dioxo-1,4-dihydro-1-benzo[1,2,4]thiadiazin-3-yl)-4-hydroxy-1-(3-methylbutyl)-2-oxo-1,2-dihydro-quinoline-5-carboxylic acid]"
10,> 10,"CN(C)CCn1c(=O)c(C2=Nc3ccccc3S(=O)(=O)N2)c(O)c2ccccc21 [Example 190, 1-(2-Dimethylamino-ethyl)-3-(1,1-dioxo-1,4-dihydro-1-benzo[1,2,4]thiadiazin-3-yl)-4-hydroxy-1H-quinolin-2-one]"

# Same assay, conditions: screening rate of 10 uM
row,Compound,biological activity at the screening rate of 10 uM
1,"CC(C)CCn1c(=O)c(C2=Nc3ccccc3S(=O)(=O)N2)c(O)c2ccc([N+](=O)[O-])cc21 [Example 198, 3-(1,1-Dioxo-1,2-dihydrobenzo[1,2,4]thiadiazin-3-yl)-4-hydroxy-1-(3-methylbutyl)-7-nitro-1H-quinolin-2-one]",did not demonstrate biological activity
2,"CC(C)CCn1c(=O)c(C2=Nc3ccccc3S(=O)(=O)N2)c(O)c2ccc(Cl)cc21 [Example 199, 7-Chloro-3-(1,1-dioxo-1,2-dihydrobenzo[1,2,4]thiadiazin-3-yl)-4-hydroxy-1-(3-methylbutyl)-H-quinolin-2-one]",did not demonstrate biological activity
3,"NCCCCn1c(=O)c(C2=Nc3ccccc3S(=O)(=O)N2)c(O)c2ccccc21 [Example 200, 1-(4-Aminobutyl)-3-(1,1-dioxo-1,2-dihydrobenzo[1,2,4]thiadiazin-3-yl)-4-hydroxy-1-1H-quinolin-2-one]",did not demonstrate biological activity
4,"O=c1c(C2=Nc3ccccc3S(=O)(=O)N2)c(O)c2ccccc2n1-c1ccccc1 [Example 201, 3-(1,1-Dioxo-1,2-dihydrobenzo[1,2,4]thiadiazin-3-yl)-4-hydroxy-1-phenyl-1H-quinolin-2-one]",did not demonstrate biological activity
5,"CC(C)CCn1c(=O)c(C2=NS(=O)(=O)c3c(Br)cccc3N2)c(O)c2ccccc21 [Example 203, 3-(8-Bromo-1,1-dioxo-1,4-dihydro-1-benzo[1,2,4]thiadiazin-3-yl)-4-hydroxy-1-(3-methylbutyl)-1H-quinolin-2-one]",did not demonstrate biological activity
6,"CC(C)CCn1c(=O)c(C2=NS(=O)(=O)c3ccccc3N2)c(O)c2ccc(/C=C/C(N)=O)cc21 [Example 204, (E)-3-[3-(1,1-Dioxo-1,4-dihydro-1-benzo[1,2,4]thiadiazin-3-yl)-4-hydroxy-1-(3-methylbutyl)-2-oxo-1,2-dihydro-quinolin-7-yl]acrylamide]",did not demonstrate biological activity
7,"CC(C)CCOc1ccc2c(c1)c(O)c(C1=NS(=O)(=O)c3ccccc3N1)c(=O)n2CC(=O)OC(C)(C)C [Example 205, [3-(1,1-Dioxo-1,4-dihydro-1-benzo[1,2,4]thiadiazin-3-yl)-4-hydroxy-6-(3-methyl-butoxy)-2-oxo-2H-quinolin-1-yl]acetic acid tert-butyl ester]",did not demonstrate biological activity
8,"CC(C)CCn1c(=O)c(C2=NS(=O)(=O)c3ccccc3N2)c(O)c2cc(C(=O)N(C)C)ccc21 [Example 206, 3-(1,1-Dioxo-1,4-dihydro-1-benzo[1,2,4]thiadiazin-3-yl)-4-hydroxy-1-(3-methylbutyl)-2-oxo-1,2-dihydro-quinoline-6-carboxylic acid dimethylamide]",did not demonstrate biological activity
9,"O=c1c(C2=NS(=O)(=O)c3ccccc3N2)c(O)c2ccccc2n1CCN1CCCC1 [Example 207, 3-(1,1-Dioxo-1,4-dihydro-1-benzo[1,2,4]thiadiazin-3-yl)-4-hydroxy-1-(2-pyrrolidin-1-yl-ethyl)-1H-quinolin-2-one]",did not demonstrate biological activity
10,"CC(C)(C)c1ccc(Cn2c(=O)c(C3=NS(=O)(=O)c4ccccc4N3)c(O)c3ccccc32)cc1 [Example 208, 1-(4-tert-Butylbenzyl)-3-(1,1-dioxo-1,4-dihydro-1-benzo[1,2,4]thiadiazin-3-yl)-4-hydroxy-1H-quinolin-2-one]",did not demonstrate biological activity

# System: not given
# Test: not given
# Conditions: not given
row,Compound,melting point [°C]
1,O=c1c(C2=NS(=O)(=O)c3cc(I)ccc3N2)c(O)c2ccccc2n1CCC1CC1,234 to 236
